Laboratory results: US11236106B2, “Cycloalkane-1,3-diamine derivative” (Daiichi Sankyo Company, Limited, priority 2018, dated 2022)
Counter-ions that a name gives are not always drawn.

These molecules were tested against T1, menin and MLL (menin, Flag tagged; biotinylated MLL1 peptide 1-46aa) (Homo sapiens, UniProt O00255) (assay: biochemical). Conditions: not given.
T1 sequence (O00255 1-610): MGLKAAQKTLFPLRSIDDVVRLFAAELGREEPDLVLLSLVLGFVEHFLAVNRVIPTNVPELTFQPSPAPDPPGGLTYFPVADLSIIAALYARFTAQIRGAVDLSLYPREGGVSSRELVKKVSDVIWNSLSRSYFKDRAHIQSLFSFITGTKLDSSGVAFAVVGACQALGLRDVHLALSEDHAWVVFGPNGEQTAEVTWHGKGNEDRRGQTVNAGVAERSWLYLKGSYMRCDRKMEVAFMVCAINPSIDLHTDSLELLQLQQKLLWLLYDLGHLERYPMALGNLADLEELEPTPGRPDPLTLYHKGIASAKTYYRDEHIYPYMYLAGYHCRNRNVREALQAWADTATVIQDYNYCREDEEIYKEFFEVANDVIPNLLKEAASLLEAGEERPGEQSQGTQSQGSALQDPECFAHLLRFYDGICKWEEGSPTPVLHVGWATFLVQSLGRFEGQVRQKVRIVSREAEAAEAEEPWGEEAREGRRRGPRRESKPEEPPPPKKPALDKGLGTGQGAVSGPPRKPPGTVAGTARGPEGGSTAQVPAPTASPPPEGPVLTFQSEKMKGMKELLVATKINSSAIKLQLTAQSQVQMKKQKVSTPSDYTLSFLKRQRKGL
`COc1ncc(-c2ccc(CN[C@H]3C[C@@H](O)[C@@H](N(C)c4ncnc5sc(CC(F)(F)F)cc45)C3)cc2)nc1OC` [Example 96, (1R,2S,4R)-4-({[4-(5,6-dimethoxypyrazin-2-yl)phenyl]methyl}amino)-2-{methyl[6-(2,2,2-trifluoroethyl)thieno[2,3-d]pyrimidin-4-yl]amino}cyclopentan-1-ol hydrochloride] was tested, and the IC50 was 2.7 nM.

Same assay, conditions: IC50, binding inhibitory activity between menin and MLL, AlphaLISA; 1 nM menin, 10 nM biotinylated MLL1 peptide
`COc1cc(-c2ccc(CN[C@H]3C[C@@H](O)[C@@H](N(C)c4ncnc5sc(CC(F)(F)F)cc45)C3)cc2)nnc1N(C)C` [Example 98, (1R,2S,4R)-4-[({4-[6-(dimethylamino)-5-methoxypyridazin-3-yl]phenyl}methyl)amino]-2-{methyl[6-(2,2,2-trifluoroethyl)thieno[2,3-d]pyrimidin-4-yl]amino}cyclopentan-1-ol hydrochloride] was tested, and the IC50 was 1.9 nM. `COc1nc(N(C)[C@H]2C[C@@H](NCc3ccc(-c4cnc(N(C)C)c(OC)c4)cc3)C[C@H]2O)c2cc(CC(F)(F)F)sc2n1` [Example 117, (1R,2S,4R)-4-[({4-[6-(dimethylamino)-5-methoxypyridin-3-yl]phenyl}methyl)amino]-2-{[2-methoxy-6-(2,2,2-trifluoroethyl)thieno[2,3-d]pyrimidin-4-yl](methyl)amino}cyclopentan-1-ol hydrochloride] was tested, and the IC50 was 1.4 nM. `COc1cc(-c2ccc(CN[C@H]3CC[C@H](OC)[C@@H](Nc4ncnc5sc(CC(F)(F)F)cc45)C3)cc2)nnc1OC` [Example 126, (1S,3S,4S)—N^1-{[4-(5,6-dimethoxypyridazin-3-yl)phenyl]methyl}-4-methoxy-N^3-[6-(2,2,2-trifluoroethyl)thieno[2,3-d]pyrimidin-4-yl]cyclohexane-1,3-diamine Hydrochloride] showed an IC50 of 7.5 nM. Molecule `[2H]C([2H])([2H])N(c1ncc(-c2ccc(CN[C@H]3C[C@@H](O)[C@@H](N(C)c4ncnc5sc(CC(F)(F)F)cc45)C3)cc2)cc1OC)C([2H])([2H])[2H]` [Example 122, (1R,2S,4R)-4-({[4-(6-{bis[(^2H3)methyl]amino}-5-methoxypyridin-3-yl)phenyl]methyl}amino)-2-{methyl[6-(2,2,2-trifluoroethyl)thieno[2,3-d]pyrimidin-4-yl]amino}cyclopentan-1-ol] has an IC50 of 1.7 nM. In the case of `COc1cc(-c2ccc(CN[C@H]3C[C@@H](O)[C@@H](N(C)c4ncnc5sc(CC(F)(F)F)cc45)C3)c(C)c2)cnc1OC` [Example 78, (1R,2S,4R)-4-({[4-(5,6-dimethoxypyridin-3-yl)-2-methylphenyl]methyl}amino)-2-{methyl[6-(2,2,2-trifluoroethyl)thieno[2,3-d]pyrimidin-4-yl]amino}cyclopentan-1-ol hydrochloride], the IC50 is reported as 8.5 nM. `CNc1nc(N(C)[C@H]2C[C@@H](NCc3ccc(-c4cncc5c4ccn5S(C)(=O)=O)cc3)C[C@H]2O)c2cc(CC(F)(F)F)sc2n1` [Example 64, (1R,2S,4R)-4[({4-[1-(methanesulfonyl)-1H-pyrrolo[2,3-c]pyridin-4yl]phenyl}methyl)amino]-2-{methyl[2-(methylamino)-6-(2,2,2trifluoroethyl)thieno[2,3-d]pyrimidin-4-yl]amino}cyclopentan-1-ol hydrochloride] showed an IC50 of 2.2 nM. `CNc1nc(N(C)[C@H]2C[C@@H](NCc3ccc(-c4cnc(OC)c(OC)c4)cc3)C[C@H]2O)c2cc(CC(F)(F)F)sc2n1` [Example 73, (1R,2S,4R)-4-({[4-(5,6-dimethoxypyridin-3-yl)phenyl]methyl}amino)-2-{methyl[2-(methylamino)-6-(2,2,2-trifluoroethyl)thieno[2,3-d]pyrimidin-4-yl]amino}cyclopentan-1-ol hydrochloride] was tested, and the IC50 was 6.5 nM.

Same assay, conditions: cell free IC50 (nM), 1 nM menin, 10 nM biotinylated MLL1 peptide, AlphaLISA
Work on `CN(c1ncnc2sc(CC(F)(F)F)cc12)[C@@H]1CC[C@H](NCc2ccc(Nc3cnn(C)c3)cc2)C1` [Example 12, (1R,3S)—N^1-methyl-N^3-({4-[(1-methyl-1H-pyrazol-4-yl)amino]phenyl}methyl)-N^1-[6-(2,2,2-trifluoroethyl)thieno[2,3-d]pyrimidin-4-yl]cyclopentane-1,3-diamine] yielded an IC50 of 33.8 nM. For `COc1cncc(-c2ccc(CN[C@@H]3C[C@H](N(C)c4ncnc5sc(CC(F)(F)F)cc45)C[C@@H]3O)cc2)c1` [Example 51, (1S,2R,4S)-2-({[4(5methoxypyridin-3-yl)phenyl]methyl}amino)-4-{methyl[6-(2,2,2-trilluoroethyl)thieno[2,3-d]pyrimidin-4-yl]amino}cyclopentan-1-ol hydrochloride], the IC50 was 10.1 nM. `COc1cncc(-c2ccc(CN(C)[C@@H]3C[C@H](O)C[C@H](Nc4ncnc5sc(CC(F)(F)F)cc45)C3)cc2)c1` [Example 16, (1R,3S,5R)-3-[{[4-(5-methoxypyridin-3-yl)phenyl]methyl}(methyl)amino]-5-{[6-(2,2,2-trifluoroethyl)thieno[2,3-d]pyrimidin-4-yl]amino}cyclohexan-1-ol] showed an IC50 of 1870 nM. Work on `O=C(NC1COC1)c1ccc(CN[C@H]2CCC[C@@H](Nc3ncnc4sc(CC(F)(F)F)cc34)C2)cc1` [Example 10, N-(oxetan-3-yl)-4-({[(1S,3R)-3-{[6-(2,2,2-trifluoroethyl)thieno[2,3-d]pyrimidin-4-yl]amino}cyclohexyl]amino}methyl)benzamide Hydrochloride] yielded an IC50 of 199 nM. `O=C1CCC(c2ccc(CN[C@H]3CCC[C@@H](Nc4ncnc5sc(CC(F)(F)F)cc45)C3)cc2)N1` (mixture of isomers) [Example 39, 5-[4-({[(1S,3R)-3-{[6-(2,2,2-trifluoroethyl)thieno[2,3-d]pyrimidin-4-yl[amino}cyclohexyl]amino}methyl)phenyl]pyrrolidin-2-one hydrochloride (diastereomer mixture)] showed an IC50 of 2070 nM. `FC(F)(F)Cc1cc2c(N[C@@H]3CCC[C@H](NCc4ccc(-c5ccncc5)cc4)C3)ncnc2s1` [Example 40, (1S,3R)-N^1-{[4-(pyridin-4-yl)phenyl]methyl}-N^3-[6-(2,2,2-trifluoroethyl)thieno[2,3-d]pyrimidin-4-yl]cyclohexane-1,3-diamine hydrochloride] showed an IC50 of 265 nM. Molecule `CN(c1ncnc2sc(CC(F)(F)F)nc12)[C@@H]1CC[C@H](NCc2ccc3[nH]c(C#N)cc3c2)C1` [Example 3, 5-({[(1S,3R)-3-{methyl[2-(2,2,2-trifluoroethyl)[1,3]thiazolo[5,4-d]pyrimidin-7-yl]amino}cyclopentyl]amino}methyl)-1H-indole-2-carbonitrile Hydrochloride] has an IC50 of 81.8 nM. `CN(c1ncnc2sc(CC(F)(F)F)cc12)[C@@H]1CC[C@H](NCc2ccc(OCCN3CCOCC3)cc2)C1` [Example 30, (1R,3S)-N^1-methyl-N^3-({4-[2-(morpholin-4-yl)ethoxy]phenyl}methyl)-N^1-[6-(2,2,2-trifluoroethyl)thieno[2,3-d]pyrimidin-4-yl]cyclopentane-1,3-diamine hydrochloride] gave an IC50 of 44.6 nM. In the case of `OCCN(c1ncnc2sc(CC(F)(F)F)cc12)[C@@H]1CC[C@H](NCc2ccc(-c3cccnc3)cc2)C1` [Example 42, 2-{[(1R,3S)-3-({[4-(pyridin-3-yl)phenyl]methyl}amino)cyclopentyl][6-(2,2,2-trifluoroethyl)thieno[2,3-d]pyrimidin-4-yl[amino}ethan-1-ol hydrochloride], the IC50 is reported as 105 nM. Molecule `O=C1CCCN1Cc1ccc(CN[C@H]2CCC[C@@H](Nc3ncnc4sc(CC(F)(F)F)cc34)C2)cc1` [Example 38, 1-{[4-({[(1S,3R)-3-{[6-(2,2,2-trifluoroethyl)thieno[2,3-d]pyrimidin-4-yl[amino}cyclohexy]amino}methyl)phenyl]methyl}pyrrolidin-2-one hydrochloride] has an IC50 of 1850 nM.
